The values below come from US4933350A, “Pyrroloisoquinolines useful as hypercholesterolemic and hyperlipoprotienimic agents” (May & Baker Limited, priority 1987, dated 1990).

In assay [1] the target is T1, rat hepatic microsomal HMG CoA reductase (Rattus norvegicus, UniProt P51639).
T1 construct: rat hepatic microsomal HMG CoA reductase activity in vitro; from tissue; host or cells: rat liver microsomes
T1 sequence (P51639 1-887): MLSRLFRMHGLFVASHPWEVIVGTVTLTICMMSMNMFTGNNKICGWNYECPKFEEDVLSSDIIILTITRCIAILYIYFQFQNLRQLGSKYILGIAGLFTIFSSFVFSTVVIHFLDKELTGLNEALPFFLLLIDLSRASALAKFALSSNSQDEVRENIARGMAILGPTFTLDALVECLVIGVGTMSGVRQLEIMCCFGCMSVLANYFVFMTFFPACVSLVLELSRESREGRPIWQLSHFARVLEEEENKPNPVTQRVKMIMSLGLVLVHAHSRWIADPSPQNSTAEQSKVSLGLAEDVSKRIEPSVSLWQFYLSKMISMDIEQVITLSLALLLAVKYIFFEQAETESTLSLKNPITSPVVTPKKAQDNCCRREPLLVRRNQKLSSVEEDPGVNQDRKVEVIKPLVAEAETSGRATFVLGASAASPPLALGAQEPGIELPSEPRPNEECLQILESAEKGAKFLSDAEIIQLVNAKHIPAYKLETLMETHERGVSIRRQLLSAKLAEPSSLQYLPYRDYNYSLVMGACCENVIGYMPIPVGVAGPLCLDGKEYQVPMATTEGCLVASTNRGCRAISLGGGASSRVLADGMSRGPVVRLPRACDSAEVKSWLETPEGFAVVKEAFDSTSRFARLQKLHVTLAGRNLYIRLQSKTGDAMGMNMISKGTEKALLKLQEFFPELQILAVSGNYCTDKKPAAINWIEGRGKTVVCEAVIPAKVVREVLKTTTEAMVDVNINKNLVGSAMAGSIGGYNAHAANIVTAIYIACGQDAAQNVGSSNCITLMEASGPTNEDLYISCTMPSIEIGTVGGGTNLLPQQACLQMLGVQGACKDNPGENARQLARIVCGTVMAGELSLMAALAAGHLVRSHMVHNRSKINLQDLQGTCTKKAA
Kind of assay: inhibition in rat hepatic microsomal HMG CoA reductase activity in vitro (Table I). The format is biochemical. To be noted: for inhibition at 0.0091 µg/mL: 0.0091 micrograms/ml; for inhibition at 0.0274 µg/mL: 0.0274 micrograms/ml; for inhibition at 0.082 µg/mL: 0.082 micrograms/ml; for inhibition at 0.24 µg/mL: 0.24 micrograms/ml; for inhibition at 0.74 µg/mL: 0.74 micrograms/ml; for inhibition at 2.22 µg/mL: 2.22 micrograms/ml; for inhibition at 0.25 µg/mL: 0.25 micrograms/ml; for inhibition at 0.2 µg/mL: 0.2 micrograms/ml; for inhibition at 20 µg/mL: 20.0 micrograms/ml; for inhibition at 6.7 µg/mL: 6.7 micrograms/ml; for inhibition at 6.66 µg/mL: 6.66 micrograms/ml.

Another assay deals with cholesterol biosynthesis. Kind of assay: inhibition in cholesterol biosynthesis, in vivo tests in rats, oral (Table II). The text has this: In the table the doses are expressed in mg/kg animal body weight.

Turning to `CC(C)c1c(/C=C/[C@@H](O)C[C@@H](O)CC(=O)O)c(-c2ccc(F)cc2)c2c3ccccc3ccn12` (relative stereo) [OA, sodium erythro-(E)-3,5-dihydroxy-7-{3-isopropyl-1-(4-fluorophenyl)pyrrolo[2,1-a]isoquinolin-2-yl}-hept-6-enoate], the inhibition at 0.00304 µg/mL in assay [1] (0.00304 micrograms/ml) was found to be 37%. Besides, in assay [1], testing at 0.0091 µg/mL gave an inhibition of 43%, the inhibition at 0.0274 µg/mL is 51%, the inhibition at 0.082 µg/mL was 63% and the inhibition at 0.24 µg/mL was 74%. In assay [1], the inhibition at 0.74 µg/mL was 87% and the inhibition at 2.22 µg/mL came out at 95%.
Consider `CC(C)c1c(/C=C/[C@@H](O)C[C@H](O)CC(=O)O)c(-c2ccc(F)cc2)c2c3ccccc3ccn12` (relative stereo) [OB, sodium threo-(E)-3,5-dihydroxy-7-{3-isopropyl-1-(4-fluorophenyl)pyrrolo[2,1-a]isoquinolin-2-yl}-hept-6-enoate], for which, in assay [1], the inhibition at 0.0274 µg/mL is 21%, the inhibition at 0.082 µg/mL worked out at 29%, 0.25 µg/mL produced 38% inhibition and testing at 0.74 µg/mL gave an inhibition of 53%. For the same compound, in assay [1], the inhibition at 2.22 µg/mL worked out at 70%.
In the case of `CC(C)c1c(/C=C/C(O)CC(O)CC(=O)[O-])c(-c2ccccc2)c2c3ccccc3ccn12.[Na+]` (centres unmarked) [Compound B, sodium (E)-3,5-dihydroxy-7-(3-isopropyl-1-phenylpyrrolo[2,1-a]isoquinolin-2-yl)hept-6-enoate], the entries for the “% Inhibition in cholesterol biosynthesis” value in the assay with cholesterol biosynthesis (oral dose 1.11 mg/kg), in the assay on cholesterol biosynthesis (oral dose 3.33 mg/kg) and in the assay with cholesterol biosynthesis (oral dose 10.0 mg/kg) were 67%, 77% and 91%, respectively. In assay [1] (0.025 micrograms/ml), this compound gave an inhibition at 0.025 µg/mL of 16%. In assay [1] (0.1 micrograms/ml), this compound yielded an inhibition at 0.1 µg/mL of 28%. In assay [1], this compound yielded an inhibition at 0.2 µg/mL of 43%. Besides, the inhibition at 0.4 µg/mL in assay [1] (0.4 micrograms/ml) was determined as 44%. Besides, the inhibition at 1.6 µg/mL in assay [1] (1.6 micrograms/ml) was 72%. This compound also came in with an inhibition at 2 µg/mL in assay [1] (2.0 micrograms/ml) of 81%. The inhibition at 6.4 µg/mL in assay [1] (6.4 micrograms/ml) stood at 91%. This compound returned an inhibition at 20 µg/mL in assay [1] of 98%.
For `CC(C)c1c(/C=C/C(=O)CC(O)CC(=O)O)c(-c2ccccc2)c2c3ccccc3ccn12` (centres unmarked) [Compound E, (E)-3-hydroxy-7-(3-isopropyl-1-phenylpyrrolo[2,1-a]isoquinolin-2-yl)-5-oxohept-6-enoic acid], in assay [1] (2.2 micrograms/ml), the inhibition at 2.2 µg/mL worked out at 50%. In assay [1], this compound came in with an inhibition at 6.7 µg/mL of 71% and an inhibition at 20 µg/mL of 90%.
In assay [1], `CC(C)c1c(CCC2CC(O)CC(=O)O2)c(-c2ccccc2)c2c3ccccc3ccn12` (centres unmarked) [Compound G, 4-hydroxy-6-[2-(3-isopropyl-1-phenylpyrrolo[2,1-a]isoquinolin-2-yl)ethyl]-3,4,5,6-tetrahydro-2H-pyran-2-one] came in with an inhibition at 6.7 µg/mL of 38% and an inhibition at 20 µg/mL of 44%.
In assay [1], `CCOC(=O)CC(O)CC(O)/C=C/c1c(-c2ccccc2)c2c3ccccc3ccn2c1C` (centres unmarked) [Compound H, ethyl (E)-3,5-dihydroxy-7-(3-methyl-1-phenylpyrrolo[2,1-a]-isoquinolin-2-yl)hept-6-enoate] gave an inhibition at 0.24 µg/mL of 26%, an inhibition at 0.74 µg/mL of 22%, an inhibition at 2.22 µg/mL of 33% and an inhibition at 6.66 µg/mL of 54%. Further, at 20 µg/mL the inhibition in assay [1] was 70%.
For `Cc1c(/C=C/C(O)CC(O)CC(=O)O)c(-c2ccccc2)c2c3ccccc3ccn12` (centres unmarked) [Compound I, sodium (E)-3,5-dihydroxy-7-(3-methyl-1-phenylpyrrolo[2,1-a]isoquinolin-2-yl)hept-6-enoate], in assay [1], at 0.082 µg/mL the inhibition was 44%, testing at 0.25 µg/mL gave an inhibition of 39%, the inhibition at 0.74 µg/mL came out at 35% and the inhibition at 2.22 µg/mL came to 46%. Also, in assay [1], at 6.66 µg/mL the inhibition was 68% and the inhibition at 20 µg/mL is 85%.
In assay [1], `CCc1c(/C=C/C(O)CC(O)CC(=O)O)c(-c2ccc(F)cc2)c2c3ccccc3ccn12` (centres unmarked) [Compound K, sodium (E)-3,5-dihydroxy-7-{3-ethyl-1-(4-fluorophenyl)pyrrolo-[2,1-a]isoquinolin-2-yl}hept-6-enoate] registered an inhibition at 0.0274 µg/mL of 27%, an inhibition at 0.082 µg/mL of 33%, an inhibition at 0.24 µg/mL of 46% and an inhibition at 0.74 µg/mL of 68%. Further, in assay [1], the inhibition at 2.22 µg/mL was 86% and testing at 6.66 µg/mL gave an inhibition of 95%.
Take `CC(C)c1c(/C=C/C(O)CC(O)CC(=O)O)c(-c2ccc(F)cc2)n2ccc3ccccc3c12` (centres unmarked) [Compound M, sodium (E)-3,5-dihydroxy-7-{1-isopropyl-3-(4-fluorophenyl)pyrrolo[2,1-a]isoquinolin-2-yl}hept-6-enoate]: the inhibition at 0.0025 µg/mL in assay [1] (0.0025 micrograms/ml) came out at 33%. Further, in assay [1] (0.0074 micrograms/ml), at 0.0074 µg/mL the inhibition was 46%. In addition, the inhibition at 0.022 µg/mL in assay [1] (0.022 micrograms/ml) was 63%. This compound also came in with an inhibition at 0.066 µg/mL in assay [1] (0.066 micrograms/ml) of 69%. Moreover, in assay [1], at 0.2 µg/mL the inhibition was 74%, the inhibition at 0.74 µg/mL amounted to 78%, the inhibition at 2.22 µg/mL worked out at 90% and at 6.66 µg/mL the inhibition was 96%. Moreover, in assay [1], testing at 20 µg/mL gave an inhibition of 98%. In assay [1] (0.22 micrograms/ml), 0.22 µg/mL produced 65% inhibition.
In assay [1], `CC(C)c1c(/C=C/C(=O)CC(O)CC(=O)O)c(-c2ccc(F)cc2)c2c3ccccc3ccn12` (centres unmarked) [Compound Q, sodium (E)-3-hydroxy-7-{3-isopropyl-1-(4-fluorophenyl)pyrrolo-[2,1-a]isoquinolin-2-yl}-5-oxohept-6-enoate] returned an inhibition at 0.082 µg/mL of 8%, an inhibition at 0.24 µg/mL of 22%, an inhibition at 0.74 µg/mL of 45% and an inhibition at 2.22 µg/mL of 70%. The same compound registered an inhibition at 6.66 µg/mL in assay [1] of 89%.
For `CCOC(=O)CC(O)CC(O)/C=C/c1c(-c2ccc(F)cc2)c2c3ccccc3ccn2c1C(C)C` (centres unmarked) [N, ethyl (E)-3,5-dihydroxy-7-{3-isopropyl-1-(4-fluorophenyl)pyrrolo[2,1-a]isoquinolin-2-yl}hept-6-enoate], in assay [1], the inhibition at 0.0091 µg/mL came out at 44%, the inhibition at 0.0274 µg/mL was found to be 55%, the inhibition at 0.082 µg/mL turned out to be 61% and at 0.25 µg/mL the inhibition was 74%. Further, in assay [1], the inhibition at 0.74 µg/mL stood at 87% and the inhibition at 2.22 µg/mL came out at 95%.
As for `CC(C)c1c(/C=C/C(O)CC(O)CC(=O)O)c(-c2ccc(F)cc2)c2c3ccccc3ccn12` (centres unmarked) [O, sodium (E)-3,5-dihydroxy-7-{3-isopropyl-1-(4-fluorophenyl)pyrrolo[2,1-a]isoquinolin-2-yl}-hept-6-enoate], in assay [1], at 0.24 µg/mL the inhibition was 69%, the inhibition at 0.74 µg/mL was 81%, at 2.22 µg/mL the inhibition was 92% and at 6.66 µg/mL the inhibition was 97%. In assay [1], this compound displayed an inhibition at 20 µg/mL of 99%.

The inhibition is the drop in the measured response relative to a control, in per cent. A higher inhibition goes with strong suppression.
